# Data published in patent US11400104B2, “Skeletal removal of bisphosphonates” (The Regents of the University of California, priority 2016, dated 2022).
# Entries after “also recorded” stand apart in the source; their conditions may differ.
# What was measured:
# [1] = displacement of a pre-adsorbed FL-BP from CaP-coated culture wells by a different FL-BP; type: binding; conditions: FIG. 1 Panel A
# Description: FIG. 1, Panels A-C, illustrates displacement of an adsorbed fluorescently labeled BP (FL-BP) from a hydroxyapatite surface mimicking bone by a different fluorescently labeled BP. Synthetic bone/dentine (calcium phosphate, CaP)-coated culture wells were pre-treated with either ROX-RIS or 5-FAM-RIS (50 μM) After challenged by serially diluted doses of 5-FAM-RIS or ROX-RIS (from 0 to 50 μM), respectively, Carboxyl-X-Rhodamine (ROX) and carboxyfluorescein (FAM) fluorescence intensities of the CaP-coated wells were measured. Panel A: ROX-RIS in CaP (first bars of each set) remained near the pre-adsorbed 50 μM level until 5 μM or greater concentrations of 5-FAM-RIS challenged. In contrast, 5-FAM-RIS (second bars of each set) was rapidly displaced by concentrations of ROX-RIS as low as 1 μM. Panel B: Pre-adsorbed FAM-RIS was replaced by ROX-RIS between 10 μM to 50 μM. Panel C: The quantitative measurement of FAM and ROX fluorescent signals was conducted by standardized fluorescent biophotonics and a proprietary program (LAS3000, FUJIFILM, Tokyo, Japan).
# [2] = system: ZOL-induced mouse BRONJ model; assay: ZOL-induced mouse BRONJ/ONJ model (ZOL IV injection followed by maxillary first molar extraction); type: in vivo; conditions: for development of ONJ-like lesions at the tooth extraction sites: ZOL 500 μg/kg IV, intra-oral injection one day prior to extraction, 14 days after extraction, FIG. 21; for histology of maxilla at the tooth extraction site: ONJ-like lesion: 2 weeks after extraction, one time oral injection in ZOL-mice, FIG. 20; for development of ONJ-like lesions: FIG. 19C; for ZOL-injected mice with open oral wound: 500 μg/Kg ZOL via tail vein
# Description: AF647-ZOL was applied by intra-oral injection or IV injection 1 day prior to tooth extraction. FIG. 16B are images of mouse maxilla and the oral mucosa inflammation and swelling (white dotted lines, left and right panels) with various degrees of jawbone exposure (arrow) at the tooth extraction site of ZOL-treated mice (BRONJ control: n−4). […]
# Panel A is a diagram of the experimental time line. Mice treated by IV injection of ZOL (500 μg/kg) received an intra-oral injection of AF647-ZOL, MHDP or ETI (etidronate) one day prior to maxillary 1″ molar extraction. The development of ONJ was evaluated 14 days after tooth extraction.
# The C57BL/6J (B6) mice model of ONJ is used. The consistent tissue source in this study is mouse maxillary bone with or without tooth extraction, as well as femurs, mandibles and L4/L5 lumber bones. Tooth extraction animal models for studying wound healing in mice have been well established in our and other laboratories. Systemic bisphosphonate treatment is accomplished by IV injection and the proposed local application of FL-BP is accomplished by intraoral injection to gingival/palatal tissue of mouse maxilla. Mice are subjected to maxillary molar extraction. After anesthesia and vital signs checked, the animal is placed on a bed supporting the isoflurane tubing while keeping the mouth opening. Ophthalmic ointment (bland, e.g., Lacrilube) is applied. The maxillary molar area is wiped with 0.12% Chlorhexidine gluconate solution (Peridex, oral rinse). An autoclaved dental explorer is used as an exodontia elevator after careful reflection of the cervical mucosa to minimize post-extraction discomfort. An autoclaved cotton swab is placed on the extraction socket until the initial blood coagulation is established. Maxillary 1st molar is then extracted unilaterally from so that the remaining untreated side can be utilized for chewing. In our previous experiments, the entire procedure takes about 5-15 minutes. […]
# In a preliminary study female B6 mice were injected 500 μg/Kg ZOL (equivalent to 200 μl of 350 μM ZOL) via tail vein and one week later, maxillary left first molar was extracted. […]
# Therefore, as schematically shown in FIG. 19B mouse maxillae were treated with ZOL and then either 2 μg of MHDP was orally injected to the site of the molar to be extracted or 100 μg of MHDP was IV injected and the sites of molar extraction of treated mouse maxilla were compared to controls.
# Rap1A prenylation = assay: Western blot of Rap1A prenylation in J774 macrophages; type: cell-based, mouse; conditions: 10 μM and 100 μM dose
# [3] = system: mouse femur trabecular bone; assay: micro CT evaluation of mouse femur trabecular structure (anti-resorptive function in vivo); conditions: for anti-resorptive effect: vs saline (0.9% NaCl) vehicle
# Description: FIG. 19A to FIG. 19C present evidence that certain alkylidene bisphosphonates can be used to displace active BPs in vivo in the mouse model. […] FIG. 19B outlines the protocol for the experiments using MHDP to treat C57B16 mice. An ONJ-like lesion was generated by ZOL IV injection into the mouse, followed by extraction of the maxillary first molar. One day prior to the tooth extraction, a group of mice received intra-oral injection of 2 μg MHDP and another group received IV injection of 100 μg MHDP. FIG. 19C presents images of the mouse maxilla.
# This study determines the anti-resorptive function of FL-BP in vivo, as compared to ZOL. Female B6 mice were injected with 50 μM ZOL (n=6), 50 μM FL-BP (n=6) or 0.9% NaCl vehicle solution (control: n=6) via tail vein. Three weeks later, mice were euthanized and femur and L4/L5 were harvested. After fixed in 10% buffered formalin, bone samples were subjected to micro CT analysis. The anti-resorptive function were quantitatively established by the trabecular bone three-dimensional morphometry (e.g., BV/TV, Tb.N, Tb.Th, TbSp). FL-BPs with minimal or no pharmacological BP function are used.
# Mice were IV injected with 0.9% NaCl (vehicle solution), ZOL (184 μM×100 μL=5.0 μg/animal) or AF647-ZOL (184 μM×100 μL=22.0 μg/animal) and femurs were harvested 2 weeks after injection. The micro CT data were compared.
# [4] = hydroxyapatite (HAP) binding affinity, relative retention times normalized to RIS; conditions: FIG. 7
# Description: FIG. 7 is a bar graph showing hydroxyapatite (HAP) binding affinity of Zoledronate (ZOL), ROX-RIS, 5-FAM-ZOL, and AF647-ZOL. Relative retention times were normalized to RIS.
# Hydroxyapatite assays indicate that the FL-BPs generally retain substantial affinity for bone mineral that reflect the affinity of the BP component and to a lesser extent, the affinity of the conjugated fluorophore. Hydroxyapatite (Macro-Prep® Ceramic hydroxyapatite Type II […]) was obtained from Bio-Rad Laboratories, Inc. Hercules, Calif. Accurately weighed hydroxyapatite powder (1.4-1.6 mg) was suspended in a 4 mL clear vial containing the appropriate volume of assay buffer (0.05% (wt/vol) Tween20, 10 μM EDTA and 100 mM HEPES pH=7.4) for 3 hours. Hydroxyapatite was then incubated with increasing amounts of FAM-BP and ROX-BP (0, 25, 50, 100, 200, and 300 μM). Samples were gently shaken for 3 hours at 37° C. in appropriate volume of assay buffer (0.05% (wt/vol) Tween20, 10 μM EDTA and 100 mM HEPES pH=7.4). Subsequent to the equilibrium period, the vials were centrifuged at 10,000 rpm for 5 minutes to separate the solids and the supernatant. 0.3 mL of the supernatant was collected and the equilibrium solution concentration is measured by using Shimadzu UV-VIS spectrometer. For the calibration series, FL-BP probe standards were prepared by serial dilution from the stock solution with the same isotherm buffer to give the range from 0 to 400 μM. Calibration curves were constructed using standard solutions of the target FL-BPs. Fluorescent emission can also be used to calculate the binding parameters. Nonspecific binding was measured with a similar procedure in the absence of hydroxyapatite as control. Binding parameters (Kd and Bmax, represent the equilibrium dissociate constant and maximum number of binding sites, respectively) were calculated using the PRISM program (Graphpad, USA). The binding parameters of each compound was measured in 5 independent experiments. […]
# mouse maxilla = assay: preliminary study: fluorescent imaging of mouse maxilla after 5-FAM-ZOL IV or ROX-RIS intraoral injection; type: in vivo; conditions: single intraoral 25 μl of 50 μM; 2 days after
# Description: In a preliminary study female C57B16/J (B6) mice (8 weeks old) received either a single IV injection via tail vein of 200 μl of 350 μM 5-FAM-ZOL (5-FAM-ZOL, #BV111001, BioVinc LLC, Culver City, Calif.) or a single intraoral injection of 25 μl of 50 μM ROX-RIS (5(6)-ROX-RIS, #BV150101, BioVinc LLC, CA) to gingival/palatal tissue at maxillary left first molar (white arrow in FIG. 11). […], mice were euthanized 3 weeks after the IV injection of 5-FAM-ZOL or 2 days after the intraoral injection of ROX-RIS. Skulls (containing maxilla) were harvested and standardized fluorescent biophotonics image was obtained using an excitation wavelength of 460 nm and the 515 nm filter (LAS3000, FUJIFILM Corp).
# [5] = IV 184 μM×100 μL, femurs 2 weeks after injection
smiles,measurement,setting,value
O=C(NCC(O)C[n+]1cccc(CC(O)(P(=O)(O)O)P(=O)(O)O)c1)c1ccc(-c2c3ccc(=O)cc-3oc3cc(O)ccc23)c(C(=O)O)c1 (centres unmarked) [5-FAM-RIS],concentration of challenging 5-FAM-RIS up to which pre-adsorbed ROX-RIS remained near the pre-adsorbed level,[1]; CaP wells pre-treated with 50 μM ROX-RIS,≥ 5 µM
"CC(O)(P(=O)(O)O)P(=O)(O)O [ETI, ethylene hydroxyl bisphosphonate, reference compound]",development of ONJ-like lesions at the tooth extraction sites,[2],appeared to be prevented
same,inhibition of Rap1A prenylation (accumulated unprenylated Rap1A),Rap1A prenylation,not
"O=P(O)(O)C(O)P(=O)(O)O [MHDP, methylene hydroxyl bisphosphonate]",anti-resorptive effect,[3]; FIG. 19A,lack of anti-resorptive activity; also recorded: lack of anti-resorptive effect
same,histology of maxilla at the tooth extraction site: ONJ-like lesion,[2],did not develop an ONJ-like lesion
same,development of ONJ-like lesions,[2]; IV injection of 100 μg one day prior to extraction,prevented the development of ONJ-like lesions
same,development of ONJ-like lesions at the tooth extraction sites,[2],appeared to be prevented
same,development of ONJ-like lesions,[2]; intra-oral injection of 2 μg one day prior to extraction,prevented the development of ONJ-like lesions
same,inhibition of Rap1A prenylation (accumulated unprenylated Rap1A),Rap1A prenylation,not
O=C(NCC(O)C[n+]1cccc(CC(O)(P(=O)(O)O)P(=O)(O)O)c1)c1ccc(C2=c3cc4c5c(c3Oc3c2cc2c6c3CCCN6CCC2)CCC[N+]=5CCC4)c(C(=O)O)c1 (centres unmarked) [ROX-RIS],concentration of challenging ROX-RIS that displaced pre-adsorbed 5-FAM-RIS,[1]; CaP wells pre-treated with 50 μM 5-FAM-RIS,≥ 1 µM
same,influence of the fluorophore on hydroxyapatite affinity,[4],enhancement
same,fluorescent signal in palatal bone around the injection site,mouse maxilla,localized red fluorescent signal
"O=P(O)(O)C(O)(Cn1ccnc1)P(=O)(O)O [ZOL, zoledronate]",bone volume over tissue volume (BV/TV),"[3]; FIG. 19A, trabecular bone",increased
same,connectivity density (ConnD),"[3]; FIG. 19A, trabecular bone",decreased
same,anti-resorptive effect,[3]; FIG. 19A,significant anti-resorptive effect
same,connectivity density,[3]; [5],nearly doubled
same,volume of femur trabecular bone (BV/TV),[3]; [5],nearly doubled
same,bone structural parameters,"[3]; IV 184 μM×100 μL, femurs 2 weeks after injection, FIG. 14",significantly increased
same,ZOL-injected mice with open oral wound,[2]; 2 weeks of tooth extraction,100%
same,ZOL-injected mice with open oral wound,[2]; 4 weeks of tooth extraction,50%
same,histology of maxilla at the tooth extraction site: ONJ-like lesion,[2],development of an ONJ-like lesion
same,tooth extraction wound healing in ZOL-injected mice,"[2]; ZOL IV, then maxillary first molar extraction",delayed wound healing with gingival swelling and jawbone exposure
same,inhibition of Rap1A prenylation (accumulated unprenylated Rap1A),Rap1A prenylation,inhibited Rap1A prenylation
